The source of these data is patent US20140363425A1, “SYSTEMS AND METHODS FOR I[…] HAVING ACTIVATED PR[…]” (priority 2013, published 2014).

The structures appear in SMILES notation.

The test system of one assay is AB32 cells. As to the kind of experiment: Whole genome gene expression microarray in AB32 cells. Conditions: 10 nM, 2, 6 and 24 h. It is filed as cell-based, human. The protocol:
(§1) Total RNA was isolated using RNAqueous purification columns (Invitrogen). Total RNA (500 ng) was amplified and biotin labelled using Illumina TotalPrep reagents (Invitrogen). The amplified samples (750 ng) were hybridized to human whole genome HT-12 gene expression bead arrays using the recommended Illumina reagents and following the manufacturer's protocol. Raw data were analysed using Genome Studio software (Illumina). After background subtraction data and cubic spline normalization, differential expression p values were determined using the Illumina custom model of Genome Studio. Data were further analysed using Microsoft Excel and SPSS statistical software. Hierarchical clustering and self organizing map clustering were performed using GenePattern.
In reference to FIG. 3B, T-47D and AB32 cells were treated with 10 nM ORG2058 (ORG) or vehicle for 2, 6 and 24 h. Transcript expression was measured by whole genome microarray. Genes that were differentially expressed in ORG2058 treated samples relative to the untreated control at one or more time point in T-47D or AB32 cells were compared by unsupervised hierarchical cluster analysis. Red—increased expression, green—decreased expression relative to vehicle treated control.
In reference to FIG. 10, progestin regulated transcripts were identified in AB32 cells at 2, 6 and 24 h treatment with 10 nM ORG2058 by gene expression profiling. […]

The subject of assay [1] is PR. It is filed as cell-based, human. Conditions: AB32 cells (PR expressing clone of MCF-10A), 10 nM, 45 minutes, false discovery rate 0.27%. As for the experimental part:
(§2) In one aspect, PR genomic interactions were mapped in T-47D breast cancer cells and in the AB32 cell line: a stable PR expressing clone of the MCF-10A immortalized normal breast cell line. Cells were treated with the progestin ORG2058 (10 nM, 45 minutes), followed by PR-chromatin immunoprecipitation (ChIP) and Illumina sequencing. Sequences were aligned to the human genome and genomic regions enriched in the alignments were identified using the Bowtie and ERANGE [38] software tools (false discovery rate 0.27%).
(§3) Cells were cultured to 80% confluency in 15 cm tissue culture dishes, then treated for 45 minutes with 10 nM ORG2058 or vehicle. Chromatin was subsequently cross-linked by the addition of formaldehyde to the culture medium to a final concentration of 1% and incubation for 10 minutes at 37° C. Media were immediately removed and the cells were washed with cold phosphate buffered saline and harvested by scraping. Cells were collected by centrifugation and pellets were lysed 10 minutes at 4° C. in SDS buffer (1% SDS; 10 mM EDTA; 50 mM Tris-HCl, pH 8). The lysates were sonicated at 4° C. with a Branson 450 sonicator, using seven one minute bursts at 40% amplitude and 60% duty, each separated by a rest of at least one minute. Lysates were centrifuged at 13,000×g at 4° C. for 15 minutes to remove debris. […]

Assay [2] concerns the target T1, PR (Homo sapiens, UniProt P06401).
T1 sequence (P06401 1-933): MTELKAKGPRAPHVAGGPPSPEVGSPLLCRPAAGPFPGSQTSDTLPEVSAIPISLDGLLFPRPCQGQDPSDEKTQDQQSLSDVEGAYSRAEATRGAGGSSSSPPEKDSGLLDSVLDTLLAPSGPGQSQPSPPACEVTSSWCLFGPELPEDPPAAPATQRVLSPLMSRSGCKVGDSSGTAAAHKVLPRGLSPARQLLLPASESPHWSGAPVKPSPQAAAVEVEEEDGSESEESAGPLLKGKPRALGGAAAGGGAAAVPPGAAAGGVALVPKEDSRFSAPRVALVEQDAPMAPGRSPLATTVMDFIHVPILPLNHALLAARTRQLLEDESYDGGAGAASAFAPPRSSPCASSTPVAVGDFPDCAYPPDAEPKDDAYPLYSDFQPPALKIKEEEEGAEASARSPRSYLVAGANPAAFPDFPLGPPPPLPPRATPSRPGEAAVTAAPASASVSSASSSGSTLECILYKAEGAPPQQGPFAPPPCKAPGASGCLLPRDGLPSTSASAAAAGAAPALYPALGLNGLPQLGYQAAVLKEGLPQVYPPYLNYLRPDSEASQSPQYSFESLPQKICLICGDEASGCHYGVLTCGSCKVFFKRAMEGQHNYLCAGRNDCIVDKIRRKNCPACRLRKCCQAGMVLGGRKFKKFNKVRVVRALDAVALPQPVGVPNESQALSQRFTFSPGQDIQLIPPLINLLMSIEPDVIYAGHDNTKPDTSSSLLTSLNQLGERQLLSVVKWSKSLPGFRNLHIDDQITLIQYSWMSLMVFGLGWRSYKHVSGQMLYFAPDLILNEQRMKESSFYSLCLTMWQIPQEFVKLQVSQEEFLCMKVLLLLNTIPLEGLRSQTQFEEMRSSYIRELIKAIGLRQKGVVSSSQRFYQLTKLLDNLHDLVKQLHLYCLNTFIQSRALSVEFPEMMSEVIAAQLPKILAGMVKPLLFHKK
It is filed as cell-based. As to conditions: T-47D breast cancer cells, 10 nM, 45 minutes, false discovery rate 0.27%. Also noted: endogenous in cells; host or cells: T-47D. The protocol: as §2, §3

Another assay has as its system T-47D cells. The experiment in a line: Whole genome gene expression microarray in T-47D cells. Conditions: 10 nM, 2, 6 and 24 h, self-organizing map clustering. In kind it is cell-based, human. The protocol:
as §1
(A and B) Overlap between PR binding regions and progestin regulated genes in (A) T-47D and (B) AB32 cells. (C and D) PR binding regions within 10 kb or in the 5′-UTR of genes regulated at 2, 6 and 24 h in (C) T-47D and (D) AB32 cells. (E) Genes with patterns of progestin regulation in T-47D cells that grouped together were identified by SOM cluster analysis using Gene Pattern. […]
In reference to FIG. 3B, T-47D and AB32 cells were treated with 10 nM ORG2058 (ORG) or vehicle for 2, 6 and 24 h. Transcript expression was measured by whole genome microarray. […]

The target in assay [3] is T1, PR. Conditions: cited from earlier work.

For `CC[C@@H]1C[C@H]2[C@@H]3CCC4=CC(=O)CC[C@@H]4[C@H]3CC[C@]2(C)[C@H]1C(=O)CO` [ORG2058, (8R,9S,10R,13S,14S,16R,17S)-16-ethyl-17-(2-hydroxyacetyl)-13-methyl-2,6,7,8,9,10,11,12,14,15,16,17-dodecahydro-1H-cyclopenta[a]phenanthren-3-one], the “direction of transcript regulation” value in the assay with AB32 cells is given as “more transcripts were decreased than increased”. Further, the “PR binding regions detected” value with PR [1] was found to be 8117. Moreover, the “peaks of PR binding identified” value at PR [2] worked out at 6312. The “cluster of transcripts decreased at all time points, beginning to return toward basal levels at 24 h” value in the assay on T-47D cells was determined as 26.

For the molecule `CC(=O)[C@H]1CC[C@H]2[C@@H]3CCC4=CC(=O)CC[C@]4(C)[C@H]3CC[C@]12C` [progesterone], on PR [3], the “dissociation from PR compared with ORG2058” value is listed as “dissociates from PR more rapidly”.
